From ChEMBL document CHEMBL1152509, “ssDNA aptamers that recognize diclofenac and 2-anilinophenylacetic acid” (Bioorg Med Chem, 2009)
The source made the active and inactive calls. No cut-off for these calls is given here.

Experiments:
Type in all cases: nucleic-acid assay
Nucleic Acid [1] = assay: Binding affinity to D22 ssDNA aptamer
Nucleic Acid [2] = assay: Binding affinity to D16 ssDNA aptamer
Nucleic Acid [3] = assay: Binding affinity to D3 ssDNA aptamer
Nucleic Acid [4] = assay: Binding affinity to D10/DA24 ssDNA aptamer

Row | Structure (SMILES) | Activity (Nucleic Acid [1]) | Activity (Nucleic Acid [2]) | Activity (Nucleic Acid [3]) | Kd (Nucleic Acid [4]) [µM] | Kd (Nucleic Acid [1]) [µM] | Kd (Nucleic Acid [2]) [µM] | Kd (Nucleic Acid [3]) [µM]
1 | O=C(O)Cc1ccccc1Nc1ccccc1 | Active | Active | inactive |  |  |  | 
2 | O=C(O)Cc1ccccc1Nc1c(Cl)cccc1Cl [DICLOFENAC] |  |  |  | 0.101 | 0.166 | 0.149 | 0.0427
